# Test results reported in patent US20150087619A1, “METHOD OF MITIGATING VIRUS ASSOCIATED END-ORGAN DAMAGE” (CHIMERIX, INC., priority 2012, published 2015).
# Columns and labels:
# AdV = assay: In vitro antiviral activity in cell culture; format: cell-based
# BKV [1] = assay: In vitro antiviral activity in cell culture; format: cell-based
# CMV = assay: In vitro antiviral activity in cell culture; format: cell-based; conditions: Human betaherpesvirus 5
# HHV-6(B) = assay: In vitro antiviral activity in cell culture; format: cell-based
# EBV = assay: In vitro antiviral activity in cell culture; format: cell-based; conditions: human gammaherpesvirus 4
# HSV-1 = assay: In vitro antiviral activity in cell culture; format: cell-based; conditions: HSV-1, cell culture; for EC50: Human alphaherpesvirus 1
# VZV = assay: In vitro antiviral activity in cell culture; conditions: for EC50: Human alphaherpesvirus 3, read-out: EC50s
# BKV [2] = assay: Study HDP-CDV-201: hematuria and BKV bladder events; format: in vivo, human
# Procedure: A multicenter, randomized, double-blind, placebo-controlled, dose-escalation study of safety, tolerability, and ability of HDP-CDV to prevent or control […], and EBV infection and associated disorders was conducted. During enrollment of patients in the study, urine samples of candidate patients were routinely screened for BKV. Plasma was collected from patients who tested positive for BKV viruria in urine, and AdV, EBV and BKV level in the plasma was evaluated.
# BKV [3] = assay: Study HDP-CDV-201: serum creatinine as marker of renal function
# [4] = BK positive during treatment (1/93)
# [5] = BK positive during treatment, N=93
smiles,measurement,setting,value
Nc1nc2c(ncn2COCCO)c(=O)[nH]1 [Acyclovir],EC50,AdV,> 100000 nM
same,EC50,BKV [1],> 200000 nM
Nc1ccn(C[C@@H](CO)OCP(=O)(O)O)c(=O)n1 [Cidofovir],EC50,CMV,400 nM
same,EC50,HHV-6(B),5400 nM
same,EC50,AdV,1300 nM
same,EC50,EBV,> 108000 nM
same,EC50,HSV-1,5500 nM
same,EC50,BKV [1],115000 nM
same,EC50,VZV,500 nM
Nc1nc(O)c2ncn(COC(CO)CO)c2n1 [Ganciclovir],EC50,CMV,3800 nM
same,EC50,HHV-6(B),5900 nM
same,EC50,AdV,4500 to 33000 nM
same,EC50,EBV,900 nM
same,EC50,HSV-1,7 nM
same,EC50,BKV [1],> 200000 nM
same,EC50,VZV,1300 nM
CCCCCCCCCCCCCCCCOCCCOP(=O)(O)CO[C@H](CO)Cn1ccc(N)nc1=O [HDP-CDV],1 + HEME CONFIRMED; NEW ONSET,BKV [2]; BK negative throughout (4/78),5.1%
same,1 + HEME CONFIRMED; NEW ONSET,BKV [2]; BK positive during treatment (4/93),4.3%
same,>120 LAST; 1 + HEME NEW ONSET; CONFIRMED; >25% INC CREATININE,BKV [3]; BK negative throughout,1.3%
same,CR >120 LAST VALUE; 1 + HEME CONFIRMED NEW ONSET,BKV [3]; BK negative throughout (1/78),1.3%
same,>120; NEW; >25% INCREASE,BKV [3]; BK negative throughout (6/78),7.7%
same,CREATININE >120 LAST VALUE AND NEW FROM BASELINE,BKV [3]; BK negative throughout (6/78),7.7%
same,creatinine elevations >120 microM and =>25% increase over baseline,"BKV [3]; BK negative throughout (7/78), placebo 7.4%",9.0%
same,CR >120 LAST VALUE,BKV [3]; BK negative throughout (10/78),12.8%
same,"creatinine elevations (>120 last and >25% increase from baseline) OR 1+ heme, confirmed, new onset","BKV [3]; BK negative throughout (11/78), placebo 11.1%",14.1%
same,# (of CR >120 at baseline) THAT INCREASED >25%,"BKV [3]; BK negative throughout, N=78",1
same,# (of CR >120 at baseline) THAT INCREASED DURING TREATMENT,"BKV [3]; BK negative throughout, N=78",1
same,>120 LAST; 1 + HEME NEW ONSET; CONFIRMED; >25% INC CREATININE,BKV [3]; [4],1.1%
same,CR >120 LAST VALUE; 1 + HEME CONFIRMED NEW ONSET,BKV [3]; [4],1.1%
same,>120; NEW; >25% INCREASE,BKV [3]; BK positive during treatment (7/93),7.5%
same,end of treatment creatinine elevations >120 microM and =>25% over baseline,"BKV [3]; BK positive during treatment (7/93), placebo 18.75%",7.5%
same,CREATININE >120 LAST VALUE AND NEW FROM BASELINE,BKV [3]; BK positive during treatment (10/93),10.8%
same,"creatinine elevations (>120 last and >25% increase from baseline) OR 1+ heme, confirmed, new onset","BKV [3]; BK positive during treatment (11/93), placebo 37.5%",11.8%
same,CR >120 LAST VALUE,BKV [3]; BK positive during treatment (14/93),15.1%
same,# (of CR >120 at baseline) THAT INCREASED >25%,BKV [3]; [5],0
same,# (of CR >120 at baseline) THAT INCREASED DURING TREATMENT,BKV [3]; [5],0
CC(C)Nc1nc2cc(Cl)c(Cl)cc2n1[C@H]1O[C@@H](CO)[C@H](O)[C@@H]1O [Maribavir],EC50,CMV,310 nM
same,EC50,EBV,630 nM
same,EC50s,HSV-1,No Activity
same,EC50s,"VZV; VZV, cell culture",No Activity
